Experimental data from patent US20240208968A1, “ALPHA V BETA 6 AND ALPHA V BETA 1 INTEGRIN INHIBITORS AND USES THEREOF” (DiCE Molecules SV, Inc., priority 2021, published 2024).
pIC50: −log10 of the molar value. Where a name gives a salt, the structure may show the parent alone.

Columns and labels:
αvβ6 = αvβ6 (Homo sapiens, UniProt P06756+P18564); assay: Solid Phase Integrin αvβ6 Assay; assay type: binding
How it was run: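 Inhibition of αvβ6 binding to immobilized recombinant TGFb1-LAP (1 μg/mL coating), 1 h at room temperature with 1 mM MnCl2 in BSA/TBST buffer, integrin diluted to 0.2 μg/mL before addition. Streptavidin-HRP/TMB read-out; four-parameter logistic fitting gave IC50.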

αvβ1 = αvβ1 (Homo sapiens, UniProt P05556+P06756); assay: Solid Phase Integrin αvβ1 Assay; assay type: binding
Chain of αvβ1 (P06756 31-992 limits assumed): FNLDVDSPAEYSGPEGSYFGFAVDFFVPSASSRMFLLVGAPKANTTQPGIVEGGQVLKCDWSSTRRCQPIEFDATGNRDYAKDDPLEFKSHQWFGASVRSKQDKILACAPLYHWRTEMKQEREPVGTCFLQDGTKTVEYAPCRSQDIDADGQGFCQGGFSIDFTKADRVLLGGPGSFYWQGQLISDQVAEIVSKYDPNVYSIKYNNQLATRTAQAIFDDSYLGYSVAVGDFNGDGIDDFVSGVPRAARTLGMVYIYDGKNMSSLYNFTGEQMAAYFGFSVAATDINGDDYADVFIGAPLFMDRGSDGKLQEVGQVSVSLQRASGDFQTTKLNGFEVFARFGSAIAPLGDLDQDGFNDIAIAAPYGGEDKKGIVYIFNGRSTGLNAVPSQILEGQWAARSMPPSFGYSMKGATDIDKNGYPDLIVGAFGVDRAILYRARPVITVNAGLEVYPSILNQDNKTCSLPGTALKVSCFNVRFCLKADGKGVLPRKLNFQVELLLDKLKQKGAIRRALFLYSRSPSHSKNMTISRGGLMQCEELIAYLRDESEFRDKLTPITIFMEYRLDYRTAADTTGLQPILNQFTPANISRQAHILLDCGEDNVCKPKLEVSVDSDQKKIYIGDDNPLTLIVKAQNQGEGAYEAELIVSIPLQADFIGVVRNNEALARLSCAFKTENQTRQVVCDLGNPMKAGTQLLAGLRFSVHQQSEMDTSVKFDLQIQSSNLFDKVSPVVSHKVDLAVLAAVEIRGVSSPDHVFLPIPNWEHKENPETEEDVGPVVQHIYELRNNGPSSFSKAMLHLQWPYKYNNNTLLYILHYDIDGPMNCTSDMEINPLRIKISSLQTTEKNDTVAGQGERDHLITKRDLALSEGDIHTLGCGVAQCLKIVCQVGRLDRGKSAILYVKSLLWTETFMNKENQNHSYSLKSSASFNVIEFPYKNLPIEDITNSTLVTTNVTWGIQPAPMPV
Chain of αvβ1 (P05556 21-728 limits assumed): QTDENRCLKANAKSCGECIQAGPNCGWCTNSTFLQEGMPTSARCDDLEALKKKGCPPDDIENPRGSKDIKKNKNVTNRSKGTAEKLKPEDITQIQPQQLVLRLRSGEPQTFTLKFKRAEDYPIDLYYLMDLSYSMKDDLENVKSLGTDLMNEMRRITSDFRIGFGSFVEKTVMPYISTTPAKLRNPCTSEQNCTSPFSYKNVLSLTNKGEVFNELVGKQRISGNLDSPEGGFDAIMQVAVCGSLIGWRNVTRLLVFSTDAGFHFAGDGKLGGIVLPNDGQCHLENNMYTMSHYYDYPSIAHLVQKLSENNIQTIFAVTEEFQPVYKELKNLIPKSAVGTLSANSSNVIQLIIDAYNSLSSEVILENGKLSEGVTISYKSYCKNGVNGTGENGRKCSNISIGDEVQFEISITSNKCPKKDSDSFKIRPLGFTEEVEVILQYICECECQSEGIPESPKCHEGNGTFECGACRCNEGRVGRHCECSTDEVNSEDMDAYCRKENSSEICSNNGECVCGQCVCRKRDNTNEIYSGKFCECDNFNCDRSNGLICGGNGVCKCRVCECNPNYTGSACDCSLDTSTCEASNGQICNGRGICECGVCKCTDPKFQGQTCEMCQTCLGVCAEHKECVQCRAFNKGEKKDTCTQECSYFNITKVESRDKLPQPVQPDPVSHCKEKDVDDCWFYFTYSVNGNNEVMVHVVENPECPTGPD
How it was run: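 Compound competes for αvβ1 binding to immobilized TGFb1-LAP (1 µg/mL coat) in Mn2+ (1 mM MnCl2), 2% BSA binding buffer over 90 min at room temperature, integrin added at 0.2 µg/mL. Read-out: streptavidin-HRP/TMB; IC50 from Levenberg-Marquardt four-parameter fit.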

Chain of αvβ6 (P06756 31-992 limits assumed): as the sequence (P06756 31-992 limits assumed) above
Chain of αvβ6 (P18564 22-707 limits assumed): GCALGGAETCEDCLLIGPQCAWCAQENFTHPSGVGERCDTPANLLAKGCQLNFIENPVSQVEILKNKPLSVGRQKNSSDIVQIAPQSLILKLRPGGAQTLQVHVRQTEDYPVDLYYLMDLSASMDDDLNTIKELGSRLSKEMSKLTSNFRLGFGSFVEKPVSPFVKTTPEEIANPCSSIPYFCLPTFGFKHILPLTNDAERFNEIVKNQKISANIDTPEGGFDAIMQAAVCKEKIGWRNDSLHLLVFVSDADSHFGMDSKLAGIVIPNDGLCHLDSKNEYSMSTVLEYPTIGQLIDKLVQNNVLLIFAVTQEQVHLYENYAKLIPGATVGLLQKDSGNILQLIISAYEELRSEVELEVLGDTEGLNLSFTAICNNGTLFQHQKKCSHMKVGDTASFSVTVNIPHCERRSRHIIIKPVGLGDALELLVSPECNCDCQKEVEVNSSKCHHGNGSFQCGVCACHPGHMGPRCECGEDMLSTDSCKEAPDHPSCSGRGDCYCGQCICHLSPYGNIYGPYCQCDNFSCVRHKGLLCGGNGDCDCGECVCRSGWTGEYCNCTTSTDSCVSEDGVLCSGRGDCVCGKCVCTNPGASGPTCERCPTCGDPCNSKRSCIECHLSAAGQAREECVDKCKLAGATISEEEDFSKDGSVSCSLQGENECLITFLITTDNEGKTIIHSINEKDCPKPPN

pIC50 (αvβ6) | pIC50 (αvβ1) | Structure (SMILES)
> 7.00 | > 7.00 | O=C(NC[C@H](Nc1ncnc2cc(F)c(F)cc12)C(=O)O)[C@@H]1CCCN(CCCc2ccc3c(n2)NCCC3)C1 [Compound 278, (2S)-2-[(6,7-difluoroquinazolin-4-yl)amino]-3-[[(3R)-1-[3-(5,6,7,8-tetrahydro-1,8-naphthyridin-2-yl)propyl]piperidine-3-carbonyl]amino]propanoic acid]
> 7.00 | > 7.00 | O=C(NC[C@H](Nc1ncnc2sccc12)C(=O)O)[C@@H]1CCCN(CCCc2ccc3c(n2)NCCC3)C1 [Compound 279, (S)-3-((R)-1-(3-(5,6,7,8-tetrahydro-1,8-naphthyridin-2-yl)propyl)piperidine-3-carboxamido)-2-(thieno[2,3-d]pyrimidin-4-ylamino)propanoic acid]
> 7.00 | > 7.00 | Cc1csc2ncnc(N[C@@H](CNC(=O)[C@@H]3CCCN(CCCc4ccc5c(n4)NCCC5)C3)C(=O)O)c12 [Compound 280, (S)-2-((5-methylthieno[2,3-d]pyrimidin-4-yl)amino)-3-((R)-1-(3-(5,6,7,8-tetrahydro-1,8-naphthyridin-2-yl)propyl)piperidine-3-carboxamido)propanoic acid]
> 7.00 | > 7.00 | O=C(NC[C@H](Nc1nc2ccccc2s1)C(=O)O)[C@@H]1CCCN(CCCc2ccc3c(n2)NCCC3)C1 [Compound 281, (2S)-2-(1,3-benzothiazol-2-ylamino)-3-[[(3R)-1-[3-(5,6,7,8-tetrahydro-1,8-naphthyridin-2-yl)propyl]piperidine-3-carbonyl]amino]propanoic acid]
> 7.00 | > 7.00 | O=C(NC[C@H](Nc1ncnc2cc(C(F)(F)F)ccc12)C(=O)O)[C@@H]1CCCN(CCCc2ccc3c(n2)NCCC3)C1 [Compound 282, (S)-3-((R)-1-(3-(5,6,7,8-tetrahydro-1,8-naphthyridin-2-yl)propyl)piperidine-3-carboxamido)-2-((7-(trifluoromethyl)quinazolin-4-yl)amino)propanoic acid hydrochloride]
> 7.00 | > 7.00 | O=C(NC[C@H](Nc1cc(C(F)(F)F)ncn1)C(=O)O)[C@@H]1CCCN(CCCc2ccc3c(n2)NCCC3)C1 [Compound 283, (2S)-3-[[(3R)-1-[3-(5,6,7,8-tetrahydro-1,8-naphthyridin-2-yl)propyl]piperidine-3-carbonyl]amino]-2-[[6-(trifluoromethyl)pyrimidin-4-yl]amino]propanoic acid]
> 7.00 | > 7.00 | O=C(NC1CCCCC1)N[C@@H](CNC(=O)[C@@H]1CCCN(CCCc2ccc3c(n2)NCCC3)C1)C(=O)O [Compound 284, (S)-2-(3-cyclohexylureido)-3-((R)-1-(3-(5,6,7,8-tetrahydro-1,8-naphthyridin-2-yl)propyl)piperidine-3-carboxamido)propanoic acid]
> 7.00 | > 7.00 | O=C(N[C@@H](CNC(=O)[C@@H]1CCCN(CCCc2ccc3c(n2)NCCC3)C1)C(=O)O)C1CC2CCC1CC2 (stereo partly drawn) [Compound 285, (2S)-2-(bicyclo[22.2]octane-2-carboxamido)-3-((R)-1-(3-(5,6,7,8-tetrahydro-1,8-naphthyridin-2-yl)propyl)piperidine-3-carboxamido)propanoic acid]
< 6.00 | < 6.00 | O=C(O)C[C@H](NC(=O)[C@H]1CCCN(C(=O)CCc2ccc3c(n2)NCCC3)C1)c1ccccc1 [Compound 286, (S)-3-phenyl-3-((S)-1-(3-(5,6,7,8-tetrahydro-1,8-naphthyridin-2-yl)propanoyl)piperidine-3-carboxamido)propanoic acid hydrochloride]
< 6.00 | < 6.00 | O=C(O)C[C@H](NC(=O)[C@H]1CCCN(CCCCc2ccc3c(n2)NCCC3)C1)c1ccccc1 [Compound 287, (S)-3-phenyl-3-((S)-1-(4-(5,6,7,8-tetrahydro-1,8-naphthyridin-2-yl)butyl)piperidine-3-carboxamido)propanoic acid]
> 7.00 | 6.00 to 7.00 | O=C(O)C[C@H](NC(=O)[C@@H]1CCCN(CCCCc2ccc3c(n2)NCCC3)C1)c1ccccc1 [Compound 288, (S)-3-phenyl-3-((R)-1-(4-(5,6,7,8-tetrahydro-1,8-naphthyridin-2-yl)butyl)piperidine-3-carboxamido)propanoic acid hydrochloride]
6.00 to 7.00 | 6.00 to 7.00 | O=C(O)C[C@H](NC(=O)[C@@H]1CCCN(C(=O)CCc2ccc3c(n2)NCCC3)C1)c1ccccc1 [Compound 289, (S)-3-phenyl-3-((R)-1-(3-(5,6,7,8-tetrahydro-1,8-naphthyridin-2-yl)propanoyl)piperidine-3-carboxamido)propanoic acid hydrochloride]
6.00 to 7.00 | < 6.00 | O=C(O)C[C@H](NC(=O)[C@@H]1CCCN(CCc2ccc3c(n2)NCCC3)C1)c1ccccc1 [Compound 290, (S)-3-phenyl-3-((R)-1-(2-(5,6,7,8-tetrahydro-1,8-naphthyridin-2-yl)ethyl)piperidine-3-carboxamido)propanoic acid]
> 7.00 | 6.00 to 7.00 | O=C(O)C[C@H](NC(=O)[C@@H]1CN(CCCc2ccc3c(n2)NCCC3)CC(F)(F)C1)c1ccccc1 [Compound 291-A, (3S)-3-(5,5-difluoro-1-(3-(5,6,7,8-tetrahydro-1,8-naphthyridin-2-yl)propyl)piperidine-3-carboxamido)-3-phenylpropanoic acid]
6.00 to 7.00 | 6.00 to 7.00 | O=C(O)C[C@H](NC(=O)[C@H]1CN(CCCc2ccc3c(n2)NCCC3)CC(F)(F)C1)c1ccccc1 [Compound 291-B, (3S)-3-(5,5-difluoro-1-(3-(5,6,7,8-tetrahydro-1,8-naphthyridin-2-yl)propyl)piperidine-3-carboxamido)-3-phenylpropanoic acid]
< 6.00 | < 6.00 | O=C(O)C[C@H](NC[C@@H]1CCCN(CCCc2ccc3c(n2)NCCC3)C1)c1ccccc1 [Compound 292, (S)-3-phenyl-3-(S)-1-(3-(5,6,7,8-tetrahydro-1,8-naphthyridin-2-yl)propyl)piperidin-3-yl)methyl)amino)propanoic acid hydrochloride]
< 6.00 | < 6.00 | CN(C[C@@H]1CCCN(CCCc2ccc3c(n2)NCCC3)C1)[C@@H](CC(=O)O)c1ccccc1 [Compound 293, (S)-3-(methyl(((R)-1-(3-(5,6,7,8-tetrahydro-1,8-naphthyridin-2-yl)propyl)piperidin-3-yl)methyl)amino)-3-phenylpropanoic acid hydrochloride]
< 6.00 | < 6.00 | O=C(O)C[C@H](OC[C@@H]1CCCN(CCCc2ccc3c(n2)NCCC3)C1)c1ccccc1 [Compound 294, (S)-3-phenyl-3-(((R)-1-(3-(5,6,7,8-tetrahydro-1,8-naphthyridin-2-yl)propyl)piperidin-3-yl)methoxy)propanoic acid]
> 7.00 | > 7.00 | O=C(O)C[C@H](CN[C@@H]1CCCN(CCCc2ccc3c(n2)NCCC3)C1)c1ccccc1 [Compound 295, (S)-3-phenyl-4-(((R)-1-(3-(5,6,7,8-tetrahydro-1,8-naphthyridin-2-yl)propyl)piperidin-3-yl)amino)butanoic acid]
< 6.00 | 6.00 to 7.00 | CN(C[C@@H](CC(=O)O)c1ccccc1)[C@@H]1CCCN(CCCc2ccc3c(n2)NCCC3)C1 [Compound 296, (S)-4-(methyl((R)-1-(3-(5,6,7,8-tetrahydro-1,8-naphthyridin-2-yl)propyl)piperidin-3-yl)amino)-3-phenylbutanoic acid]
> 7.00 | > 7.00 | O=C(O)CC(CO[C@@H]1CCCN(CCCc2ccc3c(n2)NCCC3)C1)c1ccccc1 (stereo partly drawn) [Compound 297, 3-phenyl-4-(((R)-1-(3-(5,6,7,8-tetrahydro-1,8-naphthyridin-2-yl)propyl)piperidin-3-yl)oxy)butanoic acid hydrochloride]
6.00 to 7.00 | 6.00 to 7.00 | O=C(O)C[C@H](CO[C@@H]1CCCN(CCCc2ccc3c(n2)NCCC3)C1)c1ccccc1 [Compound 297-A, 3-phenyl-4-(((R)-1-(3-(5,6,7,8-tetrahydro-1,8-naphthyridin-2-yl)propyl)piperidin-3-yl)oxy)butanoic acid]
> 7.00 | > 7.00 | O=C(O)C[C@@H](CO[C@@H]1CCCN(CCCc2ccc3c(n2)NCCC3)C1)c1ccccc1 [Compound 297-B, 3-phenyl-4-(((R)-1-(3-(5,6,7,8-tetrahydro-1,8-naphthyridin-2-yl)propyl)piperidin-3-yl)oxy)butanoic acid]
6.00 to 7.00 | > 7.00 | O=C(O)C[C@@H](CC[C@@H]1CCCN(CCCc2ccc3c(n2)NCCC3)C1)c1ccccc1 [Compound 298-A, 3-phenyl-5-((R)-1-(3-(5,6,7,8-tetrahydro-1,8-naphthyridin-2-yl)propyl)piperidin-3-yl)pentanoi c acid]
> 7.00 | > 7.00 | O=C(O)C[C@H](CC[C@@H]1CCCN(CCCc2ccc3c(n2)NCCC3)C1)c1ccccc1 [Compound 298-B, 3-phenyl-5-((R)-1-(3-(5,6,7,8-tetrahydro-1,8-naphthyridin-2-yl)propyl)piperidin-3-yl)pentanoi c acid]
< 6.00 | < 6.00 | O=C(O)C[C@H](C(=O)N[C@@H]1CCCN(CCCc2ccc3c(n2)NCCC3)C1)c1ccccc1 [Compound 299, (S)-4-oxo-3-phenyl-4-(((R)-1-(3-(5,6,7,8-tetrahydro-1,8-naphthyridin-2-yl)propyl)piperidin-3-yl)amino)butanoic acid]
